# Laboratory results from patent US20260294863A1, “METHOD OF TREATING FIBROTIC-RELATED CONDITION” (YISSUM RESEARCH DEVELOPMENT COMPANY OF THE HEBREW …, priority 2023, published 2026).
# Entries after “also recorded” stand apart in the source; their conditions may differ.
# Key:
# TNFα [1] = test: Secretion of TNFα from BzATP/LPS-activated microglia (ELISA); format: cell-based, Balb/C mice; conditions: all concentrations tested, added 2 hrs before BzATP and LPS, 0.1% BSA; p<0.01
# Description: (§1) Experiments were performed on primary microglial cells isolated from brains of neonatal Balb/C mice as previously described (Reichert and Rotshenker, 2003). The brains were stripped of their meninges and enzymatically dissociated. Cells were plated on Poly-L-lysine coated flasks for one week, re-plated for 1- to 2-hr on bacteriological plates and non-adherent cells were washed away. Microglia were propagated by incubation in 20% of medium, conditioned by the L-cell line that produces mouse-CSF. They were identified by morphology and positive immune-reactivity to P2y12, F4/80, complement receptor-3 and Galectin-3/MAC-2 (Reichert and Rotshenker 2003; Gitik et al. 2011).
# (§2) Cytokines were measured as previously described (Shamash et al. 2002) using ELISA Max deluxe set (Biolegend, CA, USA) for secreted TNFα and IL-6 proteins and ELISA DuoSet (R&D systems, UK) for secreted and cell associated IL-1β, according to manufacturer's instructions.
# (§3) The effect of ladostigil at concentrations of 1×10^−13 M to 1×10^−9 M on the secretion of cytokine proteins was assessed by adding it to microglia for 2 hr before LPS (0.75 μg/ml) and BzATP (400 μM). Other microglia were treated similarly with the steroid, budesonide as a reference standard at concentrations of 1× 10^−13 to 1× 10^−11 M. Measurements of cytokine secretion were performed 8 hrs after addition of LPS and BzATP. Since the levels of secreted IL-1β were still low, samples were concentrated 2- to 4-fold by an Amicon ultra-centrifugal filter device (Merck-Millipore, Ireland). ELISA was used to quantify the levels of cytokine proteins. Protein content in the microglia lysate was measured by Bradford and levels of cytokines were calculated and presented as pg/μg of microglial protein.
# IL6 = test: Secretion of IL6 from BzATP/LPS-activated microglia (ELISA); format: cell-based, Balb/C mice; conditions: all concentrations tested
# Description: as §1, §2, §3
# IL1β = test: Secretion of IL1β from BzATP/LPS-activated microglia (ELISA); format: cell-based, Balb/C mice
# Description: as §1, §2, §3
# [2] = Mortality in bleomycin-induced lung fibrosis; format: in vivo, C57BL/6JOlaHsd mice; conditions: bleomycin alone
# Description: The animal model of bleomycin-induced lung fibrosis is widely used to characterize the potential inhibitory effect of newly developed drugs (Distler et al. 2019). Experiments were performed in C57BL/6JOlaHsd male and female mice aged 12-13 weeks. Male mice weighed 23-27.3 g and female mice, 19.4-21.1 g. They were housed under pathogen-free conditions, up to 6 per cage, in IVC cages under a controlled temperature of 22-24° C., humidity and alternating 12-h light/dark cycles and provided with food and water ad libitum. […] Saline (2-3/sex) and bleomycin controls were anesthetized as described above. Bleomycin solution (0.25 mg/kg in 50 μl) was instilled into the lumen of the trachea as shown in a video by Ehrentraut et al. (2019). […] Mice were weighed daily and sacrificed on day 21. Bronchial fluid was collected as described in Ehrentraut et al. (2019). TNFα and IL-6 in the bronchial fluid lavage was measured by ELISA as described in the preceding section.
# [3] = Body weight in bleomycin-induced skin sclerosis; format: in vivo, C57BL/6 mice; conditions: bleomycin, days 24-27
# Description: (§4) Male C57BL/6 mice aged 8 weeks were housed under pathogen-free conditions at a controlled temperature of 22-24° C., humidity and alternating 12-h light/dark cycles and provided with food and water ad libitum. Skin sclerosis was induced as described by Ravanetti et al, (2020). A small incision was made in the skin at the back caudal to the scapulae and subcutaneous pocket was created into which an Alzet micro-osmotic pump was implanted, and the incision closed with two stiches and a surgical clip. The pumps contained bleomycin, (delivered at the rate of 60 U/kg body weight) or saline (control) and were removed 10 days after implantation. The mice were monitored daily until they recovered completely and weighed twice weekly from the beginning of the experiment.
# (§5) Ladostigil (10 mg/kg/day) was administered in the drinking fluid to 10 mice, housed 2/cage, from 3 days before bleomycin pump installation until the end of the experiment. The fluid intake of the mice was measured daily. The dose of ladostigil was adjusted accordingly. Bleomycin alone, (10 mice) and saline controls (6 mice) received regular drinking fluid.
# skin sclerosis = test: Dermal and hypodermal thickness in bleomycin-induced skin sclerosis; format: in vivo, C57BL/6 mice; conditions: bleomycin treatment
# Description: as §4, §5
# Skin was harvested on the gluteal region to avoid dermal fibrosis artifact due to proximity to the site of implant. For histological assessment, the samples were dehydrated in a graded ethanol series, clarified in xylene, and paraffin embedded. They were mounted on slides and paraffin was removed. Sections of 5 μm thickness were cut with a rotary microtome and stained with hematoxylin and eosin (H&E)
# [4] = Body weight in bleomycin-induced lung fibrosis; format: in vivo, C57BL/6JOlaHsd mice; conditions: AN1284 2.5 mg/kg/day, days 11 and 14 after bleomycin, males
# Description: (§6) The animal model of bleomycin-induced lung fibrosis is widely used to characterize the potential inhibitory effect of newly developed drugs (Distler et al. 2019). Experiments were performed in C57BL/6JOlaHsd male and female mice aged 12-13 weeks. Male mice weighed 23-27.3 g and female mice, 19.4-21.1 g. They were housed under pathogen-free conditions, up to 6 per cage, in IVC cages under a controlled temperature of 22-24° C., humidity and alternating 12-h light/dark cycles and provided with food and water ad libitum. In order to minimize the stress of daily injection, ladostigil (5 mg/Kg/day) was administered by micro-osmotic pumps, implanted subcutaneously under ketamine/xylazine anesthesia, 5 days before administration of bleomycin, and delivered for 3 weeks to mice of each sex. Saline (2-3/sex) and bleomycin controls were anesthetized as described above. Bleomycin solution (0.25 mg/kg in 50 μl) was instilled into the lumen of the trachea as shown in a video by Ehrentraut et al. (2019). […] Mice were weighed daily and sacrificed on day 21. Bronchial fluid was collected as described in Ehrentraut et al. (2019). TNFα and IL-6 in the bronchial fluid lavage was measured by ELISA as described in the preceding section.
# (§7) Experiments were performed in C57BL/6JOlaHsd male mice aged 12-13 weeks as described for ladostigil. AN1284 (2.5 mg/kg/day) was administered by micro-osmotic pumps, implanted subcutaneously under ketamine/xylazine anesthesia, 5 days before administration of bleomycin and delivered for 3 weeks. Mice were weighed daily, sacrificed on day 21 and bronchial fluid was collected. Fibrosis was measured by staining with Sirius red as described for ladostigil. TNFα and IL-6 in the bronchial fluid lavage was measured by ELISA as described for ladostigil.
# [5] = test system: bleomycin-induced lung fibrosis; test: Lung fibrosis score / collagen content in bleomycin-induced lung fibrosis; format: in vivo, C57BL/6JOlaHsd mice
# Description: as §6
# Specimens taken from the left lung were embedded in paraffin and cut into 5 μm-thick slices. They were put on slides and paraffin was removed. They were rehydrated and stained with a solution of Sirius red (100 mg/100 ml of [COMPOUND LEFT OUT], rinsed in distilled water until clear, dehydrated and mounted in a resinous medium. The red stain (also called “Sirius red” stain) is one of the best understood histochemical techniques. It relies on the birefringent properties of collagen and is much more specific than the other common collagen stains, Pulmonary fibrosis was evaluated on a score of 0-4 on 15-20 different fields taken from each lung section, according to the area and intensity of fibrotic staining in the field, excluding that in blood vessels. Two independent scientists blinded to the treatment performed the analysis. For TGFβ1 staining, slides were deparaffinized and rehydrated. Antigen retrieval was performed in Tris-based buffer, pH 9.0. Endogenous peroxidase activity was quenched by incubation in 3% H2O2. The tissue was permeabilized with Triton X-100 0.1% in PBS. After blocking, sections were incubated with primary antibody: diluted rabbit recombinant monoclonal TGFβ1 antibody (Abcam ab215715) over night, at 4° C. Slices were further incubated with the secondary antibody: ImmPRESS®-HRP Goat Anti-Rabbit IgG Polymer Detection Kit, Peroxidase (Vector labs VE-MP-7451-15) at room temperature. For color development, sections were incubated in peroxidase substrate solution DAB, at room temperature until desired stain intensity developed. They were then counterstained with filtered hematoxylin and cosin, cleared and mounted.
# as §7
# TNFα [6] = test: TNFα in bronchial fluid, bleomycin-induced lung fibrosis (ELISA); format: in vivo, C57BL/6JOlaHsd mice; conditions: AN1284 2.5 mg/kg/day, bleomycin, males; 2.5 mg/kg/day
# Description: (§8) The animal model of bleomycin-induced lung fibrosis is widely used to characterize the potential inhibitory effect of newly developed drugs (Distler et al. 2019). Experiments were performed in C57BL/6JOlaHsd male and female mice aged 12-13 weeks. Male mice weighed 23-27.3 g and female mice, 19.4-21.1 g. They were housed under pathogen-free conditions, up to 6 per cage, in IVC cages under a controlled temperature of 22-24° C., humidity and alternating 12-h light/dark cycles and provided with food and water ad libitum. In order to minimize the stress of daily injection, ladostigil (5 mg/Kg/day) was administered by micro-osmotic pumps, implanted subcutaneously under ketamine/xylazine anesthesia, 5 days before administration of bleomycin, and delivered for 3 weeks to mice of each sex. Saline (2-3/sex) and bleomycin controls were anesthetized as described above. Bleomycin solution (0.25 mg/kg in 50 μl) was instilled into the lumen of the trachea as shown in a video by Ehrentraut et al. (2019). […] TNFα and IL-6 in the bronchial fluid lavage was measured by ELISA as described in the preceding section.
# (§9) Experiments were performed in C57BL/6JOlaHsd male mice aged 12-13 weeks as described for ladostigil. […] Fibrosis was measured by staining with Sirius red as described for ladostigil. TNFα and IL-6 in the bronchial fluid lavage was measured by ELISA as described for ladostigil.
# IL-6 = IL-6 in bronchial fluid, bleomycin-induced lung fibrosis (ELISA); format: in vivo, C57BL/6JOlaHsd mice; conditions: AN1284 2.5 mg/kg/day, bleomycin, males; 2.5 mg/kg/day
# Description: as §8, §9
# Nrf2 = Nrf2 in RAW cells activated by LPS; format: cell-based
# Description: (§10) RAW 264.7 cells were seeded at a density of 1×10^5 cells per well in 48-well culture plates and grown overnight in DMEM supplemented as indicated above. The wells were washed with PBS (pH 7.4). AN1284, prepared in sterile double distilled water and Budesonide (positive control) were added to give final concentrations ranging from 1× 10^−13-1×10^−7M in medium containing 2% FCS. The cells were incubated for 2 h at 37° C. prior to stimulation with LPS, 2.5 μg/mL from Escherichia coli (Sigma-Aldrich serotype 0111: B4). Supernatants were harvested after 8 hrs for measurement of TNF-α and 24 h for IL-6. TNF-α and IL-6 protein were detected by a commercial ELISA kit (Biolegend, San Diego, CA, USA) according to the manufacturer's instructions. Each concentration of each compound was tested in two-three separate experiments in 6 wells per concentration.
# (§11) RAW 264.7 cells were lysed in 0.1 ml of buffer containing 150 mM Tris-Cl (pH 6.8), 10% Glycerol, 0.6% SDS, Bromophenol Blue and 100 mM β-Mercaptoethanol. Lysates were collected and heated at 95° C. for 5 min, then centrifuged for 3 min at 2,240 g. Supernatants were used for gel separation. Protein concentration of the lysates was determined by using Coomassie Brilliant Blue staining. […] Molecular changes were assessed semi-quantitatively after incubation with primary antibodies for relevant proteins.
# NLRP3 = NLRP3 in RAW cells activated by LPS; format: cell-based
# Description: as §10, §11
# Egr1 = Egr1 in RAW cells activated by LPS; format: cell-based
# Description: as §10, §11
# [7] = test system: cytotoxicity resulting from oxidative stress; conditions: cited from earlier work
# [8] = test system: LPS-activated macrophages; conditions: cited from earlier work
# MAPK p38 = conditions: cited from earlier work
# Activator protein-1 = conditions: cited from earlier work
# [9] = test system: non-alcoholic steatohepatitis (NASH); conditions: 1 mg/kg/day, two months, micro-osmotic pumps; cited from earlier work
# [10] = test system: Aryl hydrocarbon receptor (AhR); conditions: 1 mg/kg/day, two months, NASH mice; cited from earlier work
compound,measurement,setting,value
"CCCC1O[C@@H]2C[C@H]3[C@@H]4CCC5=CC(=O)C=C[C@]5(C)[C@H]4[C@@H](O)C[C@]3(C)[C@]2(C(=O)CO)O1 (stereo partly drawn) [budesonide, reference compound]",reduction of TNFα release,TNFα [1],reduced the 3 cytokines significantly
same,reduction of IL6 release,"IL6; added 2 hrs before BzATP and LPS, 0.1% BSA, p<0.01",reduced the 3 cytokines significantly
same,reduction of IL6 compared with reduction of TNF,IL6; p<0.001,greater than those of TNF
same,reduction of IL1β release,"IL1β; all concentrations tested, added 2 hrs before BzATP and LPS, 0.1% BSA, p<0.01",reduced the 3 cytokines significantly
same,reduction of IL1β compared with reduction of TNFα,"IL1β; ladostigil 1×10^−9 M, budesonide 1×10^−11 M",greater than that of TNFα
bleomycin [reference compound],mortality,"[2]; females, days 7 to 17 (6/38)",16%
same,mortality,"[2]; males, days 16-19 (5/16)",31%
same,weight gain compared with saline,[3],smaller increase in weight
same,hypodermis thickness change caused,skin sclerosis,thinning of the hypodermis
same,skin (dermal) thickness change caused,skin sclerosis,thickening
"CC(C)NCCCN1CCc2ccccc21.Cl.Cl [AN1284, 3-(indolin-1-yl)-N-isopropylpropan-1-amine 2HCl]",body weight loss,[4],reduced body weight loss
same,collagen levels / fibrosis score,"[5]; AN1284 2.5 mg/kg/day by micro-osmotic pumps, males",reduced fibrosis score
same,fibrosis (overall conclusion),[5]; bleomycin-induced lung fibrosis murine model,shown to reduce fibrosis
same,TNFα in bronchial fluid,TNFα [6],does not affect levels of pro-inflammatory cytokines; also recorded: did not reduce
same,IL-6 in bronchial fluid,IL-6,does not affect levels of pro-inflammatory cytokines; also recorded: did not reduce
same,Nrf2,"Nrf2; LPS + AN1284 0.1 nM, LPS + vehicle 2.3",1.6
same,expression of Nrf2,Nrf2; LPS-activated RAW cells,decreased the expression of Nrf2
same,NLRP3,"NLRP3; LPS + AN1284 0.1 nM, LPS + vehicle 1.6",1.1
same,expression of NLRP3,NLRP3; LPS-activated RAW cells,effectively reduce expression of NLRP3
same,Egr1,"Egr1; LPS + AN1284 0.1 nM, LPS + vehicle 2.7",1.3
same,EGR1,Egr1; LPS-activated macrophages,reduced ERG1 in macrophages
same,cytotoxicity resulting from oxidative stress,[7],inhibited cytotoxicity
same,release of pro-inflammatory cytokines,[8],reduced the release of pro-inflammatory cytokines
same,phosphorylation of MAPK p38,MAPK p38,inhibiting phosphorylation of MAPK p38
same,nuclear translocation of Activator protein-1,Activator protein-1,inhibiting phosphorylation of MAPK p38 and nuclear translocation of Activator protein-1
same,"steatosis, lipogenesis, and fibrosis",[9],"attenuated steatosis, lipogenesis, and fibrosis"
same,activation of AhR,[10],activation of the Aryl hydrocarbon receptor (AhR)
